Blank lines part the entries; values can stand above or below the compound they belong to.
Experiments:
FSHR = biological target: T1, FSHR (Homo sapiens, UniProt P23945); assay: EC50 of Cyclic AMP Production in CHO FSHR Cells+EC20 FSH (Assay A); format: cell-based; details: for EC50: cAMP HTRF
T1 construct: expressed in transfected cells; host or cells: CHO (Cho-FSHR-LUC-1-1-43)
T1 sequence (P23945 18-695): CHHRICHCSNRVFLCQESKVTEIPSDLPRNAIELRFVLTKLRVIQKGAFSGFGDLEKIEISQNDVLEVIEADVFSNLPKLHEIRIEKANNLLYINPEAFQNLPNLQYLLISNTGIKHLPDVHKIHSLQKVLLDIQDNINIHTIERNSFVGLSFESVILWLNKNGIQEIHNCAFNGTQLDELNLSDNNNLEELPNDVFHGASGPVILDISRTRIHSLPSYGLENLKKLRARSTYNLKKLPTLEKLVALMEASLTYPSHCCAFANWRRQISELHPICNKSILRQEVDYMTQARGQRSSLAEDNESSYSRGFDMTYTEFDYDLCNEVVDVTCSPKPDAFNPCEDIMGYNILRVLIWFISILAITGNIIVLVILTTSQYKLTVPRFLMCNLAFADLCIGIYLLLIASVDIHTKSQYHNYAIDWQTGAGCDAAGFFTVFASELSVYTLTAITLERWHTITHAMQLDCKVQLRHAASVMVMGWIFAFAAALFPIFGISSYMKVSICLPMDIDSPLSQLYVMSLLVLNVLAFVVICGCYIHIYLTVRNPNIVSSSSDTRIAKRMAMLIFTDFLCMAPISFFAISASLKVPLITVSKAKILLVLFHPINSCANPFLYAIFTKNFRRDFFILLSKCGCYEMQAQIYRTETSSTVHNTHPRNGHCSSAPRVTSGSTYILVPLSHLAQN
Method: Example 17: EC50 of Cyclic AMP Production in CHO FSHR Cells+EC20 FSH (Assay A)
2500 Cho-FSHR-LUC-1-1-43 cells were plated per well in 5 μl of phenol red free DMEM/F12+1% FBS. Cells were plated in 384 well, solid white low volume plates (Greiner 784075) by Multidrop. Cells were assayed by adding 100 μl of 2×EC20 FSH/IBMX in DMEM/F12+0.1% BSA) by Multidrop to 2 μl of test compound stamped in 384 well plates (compounds are diluted 1:50). The final FSH concentration was […], and the final IBMX concentration was 200 μM. The compound plate map was as follows: Column 1: 2 μl of DMSO; Column 2: 2 μl of DMSO; Columns 3-12 and 13-24: 2 μl of test compound, diluted 1:4 in 100% DMSO, or 2 μl of FSH, diluted 1:4 in DMEM/F12+0.1% BSA. The starting concentration for FSH was 50 nM (final concentration was 0.5 nM). Furthermore, Column 23 contained 2 μl of EC100 FSH reference (100×) (diluted in DMEM/F12+0.1% BSA) at a final concentration of 0.5 nM, and Column 24 contained 2 μl of 1 mM AS707664/2 reference compound 2.5 μl of compound+EC20 FSH mixture were transferred to cell plates (1:2 dilution into 5 μl of cell media) The plates were incubated at 37° C. for 1 h. 10 μl of mixed HTRF (CisBio #62AM4PEC) reagents were added per well and incubated at room temperature for 1 h. The plates were read on Envision using the cAMP HTRF—low volume 384 well protocol. The readout was the calculated fluorescence ratio (665 nm/620 nm). Values given in percent (%) indicate the percental effect (response) at a certain concentration of agonist relative to the maximum response of the FSH standard.

Rat Granulosa = Rat Granulosa EC50 FSH (Assay B); format: cell-based; details: rat granulosa cells
Method: Example 18: Rat Granulosa EC50 FSH (Assay B)
The assay was performed pursuant to the teaching of Yanofsky et al. (2006) Allosteric activation of the follicle-stimulating hormone (FSH) receptor by selective, nonpeptide agonists. JBC 281(19): 13226-13233, which is incorporated by reference in the disclosure of the invention.

SMILES: Cc1ccccc1N1CCN(c2c(NC(=O)c3ccco3)cc(C(=O)NCCCN3CCCC3=O)cc2C(F)(F)F)CC1
Emax at 3 µM (FSHR; @ 3 μM, read-out: Assay A: percental effect (response) relative to the maximum response of the FSH standard): 39%

SMILES: COc1cc(N2CCN(c3ccccc3C)CC2)c(NC(=O)c2coc(C3CC3)n2)cc1C(=O)NCCCN1CCCC1=O
EC50 (FSHR): < 100 nM
EC50 (Rat Granulosa): 1000 to 5000 nM

SMILES: Cc1ccccc1N1CCN(c2cc(O)c(C(=O)NCCCN3CCCC3=O)cc2NC(=O)c2coc(C3CC3)n2)CC1
EC50 (FSHR): 100 to 1000 nM

SMILES: Cc1ccc(C)c(N2CCN(c3cc(Cl)c(C(=O)NCCCN4CCCC4=O)cc3NC(=O)c3coc(C4CC4)n3)CC2)c1
EC50 (FSHR): 100 to 1000 nM

SMILES: CCc1cc(N2CCN(c3ccccc3C)CC2)c(NC(=O)c2coc(C3CC3)n2)cc1C(=O)NCCCN1CCCC1=O
EC50 (FSHR): 100 to 1000 nM
EC50 (Rat Granulosa): 100 to 1000 nM

SMILES: Cc1ccccc1N1CCN(c2cc(N(C)C)c(C(=O)NCCCN3CCCC3=O)cc2NC(=O)c2ccco2)CC1
EC50 (FSHR): 1000 to 5000 nM

SMILES: Cc1ccccc1N1CCN(c2cc(Cl)c(C(=O)NCc3cccc(CN(C)C)c3)cc2NC(=O)c2ccco2)CC1
EC50 (FSHR): > 5000 nM

SMILES: COCCOc1cc(N2CCN(c3ccccc3C)CC2)c(NC(=O)c2coc(C3CC3)n2)cc1C(=O)NCCCN1CCCC1=O
EC50 (FSHR): 100 to 1000 nM
EC50 (Rat Granulosa): 100 to 1000 nM

SMILES: CCOc1cc(N2CCN(c3ccccc3C)CC2)c(NC(=O)c2ccco2)cc1C(=O)NCCCN1CCCC1=O
EC50 (FSHR): 1000 to 5000 nM

SMILES: Cc1ccc(C(=O)Nc2cc(C(=O)NCCCN3CCOC3=O)c(Cl)cc2N2CCN(c3ccccc3C)CC2)o1
EC50 (FSHR): 100 to 1000 nM

SMILES: Cc1ccccc1N1CCN(c2cc(Cl)c(C(=O)NCCCN3CCOC3=O)cc2NC(=O)c2coc(C3CC3)n2)CC1
EC50 (FSHR): < 100 nM
EC50 (Rat Granulosa): 100 to 1000 nM

SMILES: Cc1ccc(F)cc1N1CCN(c2cc(Cl)c(C(=O)NCCCN3CCCC3=O)cc2NC(=O)c2coc(C3CC3)n2)CC1
EC50 (FSHR): 100 to 1000 nM

SMILES: Cc1ccccc1N1CCN(c2cc(C(F)(F)F)c(C(=O)NCCCN3CCCC3=O)cc2NC(=O)c2coc(C3CC3)n2)CC1
EC50 (FSHR): 100 to 1000 nM

SMILES: Cc1ccccc1N1CCN(c2cc(Cl)c(C(=O)NCCCc3nnn(C)n3)cc2NC(=O)c2coc(C3CC3)n2)CC1
EC50 (FSHR): 100 to 1000 nM
EC50 (Rat Granulosa): 1000 to 5000 nM

SMILES: Cc1ccccc1N1CCN(c2cc(F)c(C(=O)N[C@H]3CCC[C@H](C(=O)OC(C)(C)C)C3)cc2NC(=O)c2coc(C3CC3)n2)CC1
EC50 (FSHR): 100 to 1000 nM
Assay B: percental effect (response) (Rat Granulosa; concentration not given): 39%

SMILES: Cc1ccccc1N1CCN(c2cc3c(cc2NC(=O)c2coc(C4CC4)n2)C(=O)N(C2CCC[C@H](O)[C@@H]2O)CC3)CC1 (stereo partly shown)
EC50 (Rat Granulosa): 1000 to 5000 nM

SMILES: Cc1ccccc1N1CCN(c2cc(F)c(C(=O)N[C@H]3CCC[C@@H](C(=O)OC(C)(C)C)C3)cc2NC(=O)c2coc(C3CC3)n2)CC1
EC50 (FSHR): > 5000 nM
Assay B: percental effect (response) (Rat Granulosa; concentration not given): 11%

SMILES: Cc1ccccc1N1CCN(c2cc(F)c(C(=O)N[C@@H]3CCC[C@H](C(=O)OC(C)(C)C)C3)cc2NC(=O)c2coc(C3CC3)n2)CC1
EC50 (FSHR): 100 to 1000 nM
EC50 (Rat Granulosa): < 100 nM

SMILES: Cc1ccccc1N1CCN(c2cc(F)c(C(=O)N[C@H]3CCC[C@@H](C(=O)O)C3)cc2NC(=O)c2coc(C3CC3)n2)CC1
EC50 (FSHR): < 100 nM

SMILES: Cc1ccccc1N1CCN(c2cc(F)c(C(=O)N[C@@H]3CCC[C@H](C(=O)O)C3)cc2NC(=O)c2coc(C3CC3)n2)CC1
EC50 (FSHR): < 100 nM

The next lines start with results.

EC50 (FSHR): 1000 to 5000 nM
SMILES: Cc1ccccc1N1CCN(c2c(NC(=O)c3coc(C4CC4)n3)cc(C(=O)NCCCN3CCCC3=O)cc2C(F)(F)F)CC1

EC50 (FSHR): < 100 nM
EC50 (Rat Granulosa): 100 to 1000 nM
SMILES: Cc1ccccc1N1CCN(c2cc(Cl)c(C(=O)NCCCN3CCCC3=O)cc2NC(=O)c2coc(C3CC3)n2)CC1

EC50 (FSHR): < 100 nM
SMILES: Cc1ccccc1N1CCN(c2cc3c(cc2NC(=O)c2coc(C4CC4)n2)C(=O)N(CCCN2CCCC2=O)CC3)CC1
Assay B: percental effect (response) (Rat Granulosa; @ 5 μM): 133% @ 5 μM

EC50 (FSHR): 100 to 1000 nM
SMILES: Cc1ccccc1N1CCN(c2cc(F)c(C(=O)NCCCN3CCCC3=O)cc2NC(=O)c2coc(C3CC3)n2)CC1

EC50 (FSHR): 1000 to 5000 nM
SMILES: Cc1ccc(C)c(N2CCN(c3cc(Cl)c(C(=O)NCc4cccc(CN(C)C)c4)cc3NC(=O)c3coc(C4CC4)n3)CC2)c1

EC50 (FSHR): 1000 to 5000 nM
SMILES: Cc1ccccc1N1CCN(c2cc(C3CC3)c(C(=O)NCCCN3CCCC3=O)cc2NC(=O)c2ccco2)CC1

EC50 (FSHR): 100 to 1000 nM
SMILES: Cc1ccccc1N1CCN(c2cc(C3CC3)c(C(=O)NCCCN3CCCC3=O)cc2NC(=O)c2coc(C3CC3)n2)CC1

EC50 (FSHR): 100 to 1000 nM
EC50 (Rat Granulosa): 100 to 1000 nM
SMILES: Cc1ccccc1N1CCN(c2cc(N(C)C)c(C(=O)NCCCN3CCCC3=O)cc2NC(=O)c2coc(C3CC3)n2)CC1

EC50 (FSHR): < 100 nM
EC50 (Rat Granulosa): 100 to 1000 nM
SMILES: CCOc1cc(N2CCN(c3ccccc3C)CC2)c(NC(=O)c2coc(C3CC3)n2)cc1C(=O)NCCCN1CCCC1=O

EC50 (FSHR): 1000 to 5000 nM
SMILES: Cc1ccccc1N1CCN(c2cc3c(cc2NC(=O)c2ccco2)C(=O)N(Cc2cccc(CN(C)C)c2)CC3)CC1

EC50 (FSHR): < 100 nM
EC50 (Rat Granulosa): 100 to 1000 nM
SMILES: Cc1cccnc1N1CCN(c2cc(Cl)c(C(=O)NCCCN3CCOC3=O)cc2NC(=O)c2coc(C3CC3)n2)CC1

EC50 (FSHR): 1000 to 5000 nM
SMILES: Cc1ccc(F)cc1N1CCN(c2cc(Cl)c(C(=O)NCc3cccc(CN(C)C)c3)cc2NC(=O)c2ccco2)CC1

EC50 (FSHR): < 100 nM
EC50 (Rat Granulosa): 1000 to 5000 nM
SMILES: Cc1ccccc1N1CCN(c2cc(Cl)c(C(=O)N[C@H]3CCC[C@H](O)[C@@H]3O)cc2NC(=O)c2coc(C3CC3)n2)CC1

EC50 (FSHR): 100 to 1000 nM
EC50 (Rat Granulosa): 100 to 1000 nM
SMILES: Cc1ccccc1N1CCN(c2cc(Cl)c(C(=O)NCCCc3nnnn3C)cc2NC(=O)c2coc(C3CC3)n2)CC1

EC50 (FSHR): 100 to 1000 nM
SMILES: Cc1ccccc1N1CCN(c2cc(Cl)c(C(=O)NCCC(C)(C)C(=O)O)cc2NC(=O)c2coc(C3CC3)n2)CC1
Assay B: percental effect (response) (Rat Granulosa; @ 25 μM): 46% @ 25 μM

EC50 (FSHR): 100 to 1000 nM
EC50 (Rat Granulosa): 1000 to 5000 nM
SMILES: Cc1ccccc1N1CCN(c2cc(F)c(C(=O)NCCCN3CCOC3=O)cc2NC(=O)c2coc(C3CC3)n2)CC1

EC50 (FSHR): < 100 nM
EC50 (Rat Granulosa): 100 to 1000 nM
SMILES: Cc1ccccc1N1CCN(c2cc3c(cc2NC(=O)c2coc(C4CC4)n2)C(=O)N(CCCN2CCOC2=O)CC3)CC1

EC50 (FSHR): 100 to 1000 nM
SMILES: Cc1ccccc1N1CCN(c2cc3c(cc2NC(=O)c2coc(C4CC4)n2)C(=O)N([C@H]2CCC[C@H](O)[C@@H]2O)CC3)CC1

EC50 (FSHR): 100 to 1000 nM
SMILES: COC(=O)[C@@H]1CCC[C@H](NC(=O)c2cc(NC(=O)c3coc(C4CC4)n3)c(N3CCN(c4ccccc4C)CC3)cc2F)C1

EC50 (FSHR): < 100 nM
SMILES: Cc1ccccc1N1CCN(c2cc3ccn(CCCN4CCOC4=O)c(=O)c3cc2NC(=O)c2coc(C3CC3)n2)CC1

— patent US10183935B2, “Benzamide derivatives as modulators of the follicle stimulating hormone” (Merck Patent GmbH, priority 2012, dated 2019)
